Measured values reported in ChEMBL document CHEMBL4665701, “Discovery and Characterization of Clinical Candidate LXE408 as a Kinetoplastid-Selective Proteasome Inhibitor for the Treatment of Leishmaniases” (J Med Chem, 2020).
Each block holds one molecule with its values, some of them ahead of it. Active and inactive are the calls of the source. The rule behind the calls is not given here.

Assays:
Leishmania tarentolae [1] = experiment: Noncompetitive inhibition of chymotrypsin-like activity of Leishmania tarentolae proteasome beta 5 using fluorogenic peptide Suc-LLVY-[Rh110]-[Dpro] as substrate
[2] = Drug level in monkey hepatocytes assessed as compound abundance level at 10 uM incubated for 4 hrs by UV chromatography; type: ADME, cell-based, Macaca mulatta, Hepatocyte; conditions: rhesus monkey
Leishmania donovani [3] = experiment: Antiparasitic activity against Leishmania donovani MHOM/ET/67/HU3 (ATCC) infected in primary BALB/c mouse peritoneal macrophages assessed as reduction in parasite proliferation incubated for 120 hrs by SYBR Green I staining based assay; type: functional, organism-based; conditions: Macrophage
[4] = Drug level in dog hepatocytes assessed as compound abundance level at 10 uM incubated for 4 hrs by UV chromatography; type: ADME, cell-based, Canis lupus familiaris, Hepatocyte
[5] = Drug level in rat hepatocytes assessed as compound abundance level at 10 uM incubated for 4 hrs by UV chromatography; type: ADME, cell-based, Hepatocyte
[6] = Drug level in human hepatocytes assessed as compound abundance level at 10 uM incubated for 4 hrs by UV chromatography; type: ADME, cell-based, Hepatocyte
in vitro [7] = conditions: rat, liver microsomes
in vitro [8] = conditions: mouse, liver microsomes
in vitro [9] = conditions: rat, liver microsomes; remark: listed apart in the source
[10] = Drug uptake in beagle dog at 10 mg/kg, po measured up to 24 hrs relative to LXE408; type: ADME, organism-based, Canis lupus familiaris; conditions: in vivo
[11] = Drug level in mouse hepatocytes assessed as compound abundance level at 10 uM incubated for 4 hrs by UV chromatography; type: ADME, cell-based, Hepatocyte
Leishmania donovani [12] = experiment: Antiparasitic activity against Leishmania donovani MHOM/ET/67/HU3 (ATCC) infected in BALB/c mouse model of visceral leishmaniasis assessed as parasite burden in liver at 0.3 mg/kg, po BID for 8 days by qPCR analysis (reference value: 100%); type: functional; conditions: time 8 day
[13] = Genotoxicity in Salmonella typhimurium by Ames test; type: toxicity; conditions: salmonella enterica subsp. enterica serovar typhimurium
Leishmania donovani [14] = experiment: Antiparasitic activity against Leishmania donovani MHOM/ET/67/HU3 (ATCC) infected in BALB/c mouse model of visceral leishmaniasis assessed as parasite burden in liver at 1 mg/kg, po BID for 8 days by qPCR analysis (reference value: 100%); type: functional; conditions: time 8 day
[15] = Drug concentration in plasma of Leishmania donovani MHOM/ET/67/HU3 (ATCC) infected BALB/c mouse model of visceral leishmaniasis at 0.3 to 10 mg/kg, po BID for 8 days; type: ADME, organism-based; conditions: in vivo, 192 h, dose 0.3-10 mg/kg, time 8 day
Leishmania major = experiment: Antiparasitic activity against Leishmania major MHOM/IR/-/173 promastigotes infected in BALB/c mouse model of cutaneous leishmaniasis assessed as healing of parasite-induced skin lesions at 20 mg/kg, po BID for 10 days; type: functional, organism-based; conditions: time 10.0 day
Cytochrome P450 1A2 = target: T1, Cytochrome P450 1A2 (Homo sapiens, UniProt P05177); experiment: Drug metabolism assessed as human CYP1A2-mediated N-(4-fluoro-3-(6-(3-methylpyri din-2-yl)-[1,2,4]triazolo[1,5- a]pyrimidin-2-yl)phenyl)-2-(hy droxymethyl)-4-methyloxazole-5 -carboxamide formation; type: ADME; conditions: recombinant enzyme
T1 sequence (P05177 whole entry): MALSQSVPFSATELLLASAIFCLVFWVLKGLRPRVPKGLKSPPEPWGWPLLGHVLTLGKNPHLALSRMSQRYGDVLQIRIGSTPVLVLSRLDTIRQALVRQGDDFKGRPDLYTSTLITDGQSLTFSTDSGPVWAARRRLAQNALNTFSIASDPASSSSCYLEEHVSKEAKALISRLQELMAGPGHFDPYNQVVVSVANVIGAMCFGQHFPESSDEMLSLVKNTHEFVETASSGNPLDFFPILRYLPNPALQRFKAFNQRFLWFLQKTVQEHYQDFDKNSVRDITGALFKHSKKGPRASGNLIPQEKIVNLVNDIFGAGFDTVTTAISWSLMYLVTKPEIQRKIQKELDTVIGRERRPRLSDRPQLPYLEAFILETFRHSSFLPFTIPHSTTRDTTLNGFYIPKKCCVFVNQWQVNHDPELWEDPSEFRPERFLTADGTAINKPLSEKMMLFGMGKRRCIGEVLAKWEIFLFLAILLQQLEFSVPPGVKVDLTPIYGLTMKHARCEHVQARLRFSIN

Leishmania donovani [16] = experiment: Antiparasitic activity against Leishmania donovani MHOM/ET/67/HU3 (ATCC) infected in BALB/c mouse model of visceral leishmaniasis assessed as parasite burden in liver at 10 mg/kg, po BID for 8 days by qPCR analysis (reference value: 100%); type: functional; conditions: time 8 day
[17] = Inhibition of chymotrypsin-like activity of Leishmania tarentolae proteasome beta 5 Y113F mutant
Cytochrome P450 2J2 = target: T2, Cytochrome P450 2J2 (Homo sapiens, UniProt P51589); experiment: Drug metabolism assessed as human CYP2j2-mediated N-(4-fluoro-3-(6-(3-methylpyri din-2-yl)-[1,2,4]triazolo[1,5- a]pyrimidin-2-yl)phenyl)-2-(hy droxymethyl)-4-methyloxazole-5 -carboxamide formation; type: ADME; conditions: recombinant enzyme
T2 sequence (P51589 whole entry): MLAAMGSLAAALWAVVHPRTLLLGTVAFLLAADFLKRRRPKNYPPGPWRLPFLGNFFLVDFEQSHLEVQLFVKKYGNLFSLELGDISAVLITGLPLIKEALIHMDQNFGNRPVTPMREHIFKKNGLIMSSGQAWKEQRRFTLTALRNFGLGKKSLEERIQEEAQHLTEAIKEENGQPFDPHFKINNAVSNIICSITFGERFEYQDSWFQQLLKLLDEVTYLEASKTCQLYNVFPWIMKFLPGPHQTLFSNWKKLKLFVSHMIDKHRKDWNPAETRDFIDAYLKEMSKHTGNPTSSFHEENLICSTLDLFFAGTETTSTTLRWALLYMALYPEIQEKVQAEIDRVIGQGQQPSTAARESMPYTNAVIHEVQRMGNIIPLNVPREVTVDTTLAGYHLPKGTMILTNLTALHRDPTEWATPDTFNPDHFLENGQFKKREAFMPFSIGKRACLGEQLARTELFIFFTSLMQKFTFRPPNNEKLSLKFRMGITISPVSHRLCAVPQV

Cytochrome P450 3A4 = Cytochrome P450 3A4 (Homo sapiens, UniProt P08684); experiment: Drug metabolism assessed as human CYP3A4-mediated N-(4-fluoro-3-(6-(3-methylpyri din-2-yl)-[1,2,4]triazolo[1,5- a]pyrimidin-2-yl)phenyl)-2-(hy droxymethyl)-4-methyloxazole-5 -carboxamide formation; type: ADME; conditions: recombinant enzyme
Cytochrome P450 3A4, sequence (P08684 whole entry): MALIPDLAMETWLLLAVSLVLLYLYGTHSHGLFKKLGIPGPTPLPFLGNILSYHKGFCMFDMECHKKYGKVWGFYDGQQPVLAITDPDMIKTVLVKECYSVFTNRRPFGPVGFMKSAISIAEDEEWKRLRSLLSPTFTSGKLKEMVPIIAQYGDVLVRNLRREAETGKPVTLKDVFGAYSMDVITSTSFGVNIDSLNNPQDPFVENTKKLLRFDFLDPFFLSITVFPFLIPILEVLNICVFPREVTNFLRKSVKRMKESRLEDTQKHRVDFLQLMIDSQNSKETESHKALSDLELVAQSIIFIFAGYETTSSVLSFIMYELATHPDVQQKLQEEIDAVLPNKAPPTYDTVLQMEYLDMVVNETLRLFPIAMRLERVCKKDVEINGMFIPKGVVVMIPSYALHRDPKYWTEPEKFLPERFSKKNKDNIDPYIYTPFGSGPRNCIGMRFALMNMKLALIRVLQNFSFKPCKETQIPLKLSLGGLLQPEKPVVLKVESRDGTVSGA

Cytochrome P450 2D15 = target: T3, Cytochrome P450 2D15 (Canis lupus familiaris, UniProt Q29473); experiment: Drug metabolism assessed as dog CYP2D15-mediated N-(4-fluoro-3-(6-(3-methylpyri din-2-yl)-[1,2,4]triazolo[1,5- a]pyrimidin-2-yl)phenyl)-2-(hy droxymethyl)-4-methyloxazole-5 -carboxamide formation; type: ADME; conditions: recombinant enzyme
T3 sequence (Q29473 whole entry): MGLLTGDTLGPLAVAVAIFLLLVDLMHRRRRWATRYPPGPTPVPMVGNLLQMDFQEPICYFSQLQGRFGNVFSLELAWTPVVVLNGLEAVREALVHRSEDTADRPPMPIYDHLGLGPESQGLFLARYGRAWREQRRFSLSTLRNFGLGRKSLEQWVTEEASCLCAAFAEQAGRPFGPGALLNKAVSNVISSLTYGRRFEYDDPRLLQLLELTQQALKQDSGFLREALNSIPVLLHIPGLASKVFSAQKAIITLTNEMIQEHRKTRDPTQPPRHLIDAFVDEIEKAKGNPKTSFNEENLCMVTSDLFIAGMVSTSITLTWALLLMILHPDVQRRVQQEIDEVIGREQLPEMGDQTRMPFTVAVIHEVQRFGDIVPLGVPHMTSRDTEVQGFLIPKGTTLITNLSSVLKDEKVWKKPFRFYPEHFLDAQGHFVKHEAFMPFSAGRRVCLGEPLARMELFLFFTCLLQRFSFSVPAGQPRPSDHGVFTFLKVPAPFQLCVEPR

Cytochrome P450 1A1 = target: T4, Cytochrome P450 1A1 (Homo sapiens, UniProt P04798); experiment: Drug metabolism assessed as human CYP1A1-mediated N-(4-fluoro-3-(6-(3-methylpyri din-2-yl)-[1,2,4]triazolo[1,5- a]pyrimidin-2-yl)phenyl)-2-(hy droxymethyl)-4-methyloxazole-5 -carboxamide formation; type: ADME; conditions: recombinant enzyme
T4 sequence (P04798 whole entry): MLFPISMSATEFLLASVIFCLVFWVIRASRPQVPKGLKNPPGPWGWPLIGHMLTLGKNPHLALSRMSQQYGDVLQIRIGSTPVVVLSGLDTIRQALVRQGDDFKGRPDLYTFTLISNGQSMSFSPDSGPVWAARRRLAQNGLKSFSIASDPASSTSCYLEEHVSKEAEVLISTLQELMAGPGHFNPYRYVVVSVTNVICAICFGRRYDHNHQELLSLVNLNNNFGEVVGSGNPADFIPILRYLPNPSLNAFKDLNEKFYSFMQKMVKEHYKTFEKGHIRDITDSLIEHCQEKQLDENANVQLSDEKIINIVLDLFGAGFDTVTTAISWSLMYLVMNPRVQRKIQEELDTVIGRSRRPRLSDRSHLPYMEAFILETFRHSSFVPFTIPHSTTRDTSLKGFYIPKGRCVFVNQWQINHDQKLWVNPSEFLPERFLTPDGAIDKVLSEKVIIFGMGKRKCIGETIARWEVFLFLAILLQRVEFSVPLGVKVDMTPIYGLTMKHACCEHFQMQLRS

Leishmania donovani [18] = experiment: Antiparasitic activity against Leishmania donovani MHOM/ET/67/HU3 (ATCC) infected in BALB/c mouse model of visceral leishmaniasis assessed as parasite burden in liver at 3 mg/kg, po BID for 8 days by qPCR analysis (reference value: 100%); type: functional; conditions: time 8 day
[19] = Toxicity in rat by vivo micronucleus test
in vitro [20] = conditions: rat, liver microsomes; remark: listed apart in the source
Leishmania donovani [21] = experiment: Antiparasitic activity against Leishmania donovani MHOM/ET/67/HU3 (ATCC) infected in BALB/c mouse model of visceral leishmaniasis assessed as reduction in parasite burden in liver at 12 mg/kg, po QD for 8 days by qPCR analysis relative to control; type: functional, organism-based; conditions: time 8.0 day
Leishmania donovani [22] = experiment: Antiparasitic activity against Leishmania donovani MHOM/ET/67/HU3 (ATCC) infected in BALB/c mouse model of visceral leishmaniasis assessed as parasite burden in liver at 12 mg/kg, po QD for 8 days by qPCR analysis (reference value: 100%); type: functional; conditions: time 8 day
Leishmania tarentolae [23] = experiment: Inhibition of chymotrypsin-like activity of Leishmania tarentolae proteasome beta 4
Leishmania tarentolae [24] = experiment: Inhibition of chymotrypsin-like activity of Leishmania tarentolae proteasome beta 4 F24L mutant

hepatic extraction ratio at 1 h (in vitro [7]): < 0.21
hepatic extraction ratio at 1 h (in vitro [8]): < 0.21
hepatic extraction ratio at 1 h (in vitro [9]): 0.21
Structure (SMILES): Cc1nc(C)c(C(=O)Nc2ccc(F)c(-c3nc4ncc(-c5ncccc5Cl)cn4n3)c2)o1

Drug uptake [2]: <= 25%
Drug uptake [10]: 9.1%
Drug uptake [4]: <= 25%
Drug uptake [5]: <= 25%
Drug uptake [11]: <= 25%
Drug uptake [6]: <= 25%
Structure (SMILES): Cc1nc(C)c(C(=O)Nc2ccc(F)c(-c3nc4ncc(-c5ncccc5CO)cn4n3)c2)o1

hepatic extraction ratio at 1 h (in vitro [20]): < 0.18
Structure (SMILES): Cc1nc(C)c(C(=O)Nc2ccc(F)c(-c3nc4ncc(-c5ncccc5C(F)F)cn4n3)c2)o1

hepatic extraction ratio at 1 h (in vitro [9]): < 0.21
Structure (SMILES): COc1cccnc1-c1cnc2nc(-c3cc(NC(=O)c4oc(C)nc4C)ccc3F)nn2c1

Further lines, the molecule ahead of its results:

Structure (SMILES): Cc1nc(C)c(C(=O)Nc2ccc(F)c(-c3nc4ncc(-c5ccccn5)cn4n3)c2)o1
inhibition (Leishmania tarentolae [1]): Active

Structure (SMILES): Cc1cccnc1-c1cnc2nc(-c3cc(NC(=O)c4oc(CO)nc4C)ccc3F)nn2c1
Drug uptake [2]: <= 25%
EC50 (Leishmania donovani [3]): > 5 µM
Drug uptake [4]: 25%
Drug uptake [5]: <= 25%
Drug uptake [6]: <= 25%

Structure (SMILES): Cc1nc(C)c(C(=O)Nc2ccc(F)c(-c3nc4ncc(-c5ncccc5C)cn4n3)c2)o1 [LXE-408]
Drug uptake [2]: > 75%
Activity (Leishmania donovani [12]): 85%
Activity [13]: Non-Toxic
Activity (Leishmania donovani [14]): 5.1%
Drug uptake [15]: Dose-dependent effect
Activity (Leishmania major): Active
Drug metabolism (Cytochrome P450 1A2): Metabolite_Detected
Drug uptake [4]: > 75%
Activity (Leishmania donovani [16]): <0.16%
inhibition [17]: inactive
Drug uptake [5]: > 75%
Drug uptake [11]: > 75%
Drug metabolism (Cytochrome P450 2J2): Metabolite_Detected
Drug metabolism (Cytochrome P450 3A4): Metabolite_Detected
Drug metabolism (Cytochrome P450 2D15): Metabolite_Detected
Drug metabolism (Cytochrome P450 1A1): Metabolite_Detected
Drug uptake [6]: > 75%
Activity (Leishmania donovani [18]): <0.2%
Activity [19]: Non-Toxic

Structure (SMILES): CCCCCCCCCCCCCCCCOP(=O)([O-])OCC[N+](C)(C)C [MILTEFOSINE]
Activity (Leishmania donovani [21]): Active
Activity (Leishmania donovani [22]): 4.2%

Structure (SMILES): Cc1nc(CO)c(C(=O)Nc2ccc(F)c(-c3nc4ncc(-c5ncccc5C)cn4n3)c2)o1
Drug uptake [2]: <= 25%
EC50 (Leishmania donovani [3]): > 5 µM
Drug uptake [10]: 2.3%
Drug uptake [4]: <= 25%
Drug uptake [5]: <= 25%
Drug uptake [11]: <= 25%
Drug uptake [6]: <= 25%

Structure (SMILES): CC(C)C[C@H](NC(=O)[C@H](Cc1ccccc1)NC(=O)c1cnccn1)B(O)O
inhibition (Leishmania tarentolae [23]): Active
inhibition (Leishmania tarentolae [24]): Active
